Assay results taken from patent US10792268B2, “Methods of sustaining dietary ketosis and its effects on lipid profile” (priority 2014, dated 2020).
Marks after values point to notes of the source that are not given here.

Columns and labels:
Assay type in all cases: in vivo, Sprague-Dawley rats
[1] = Blood ketone (βHB) levels after intragastric gavage of ketone supplements; details: rats; for duration of elevated blood ketones (starting at 30 min): 5 g/kg for all four weeks
Procedure: (§1) Adult male Sprague-Dawley rats (n=74), 275-325 grams, were obtained from Harlan, and randomly assigned to the following groups: control (water), R,S-1,3-butanediol (BD), or R,S-1,3-butanediol acetoacetate diester (KE). Rats were treated daily with 5 g/kg intragastric gavage of BD or KE for days 1-28. Animals were weighed once per week to maintain accurate dosage using the Mittler Toledo SB16001 scales. Gavage was given between 10 am-1 pm daily to eliminate variance based on regular eating patterns. Diets were not restricted for this study.
(§2) Once a week, animals were fasted, with water still available for 4 hours prior to intragastric gavage to eliminate blood glucose and ketone variance of regular eating habits. Whole blood samples (10 μl) were acquired from the saphenous vein for analysis of glucose and βHB utilizing the commercially available glucose and ketone monitoring system Precision Xtra™ (Abbott Laboratories, Abbott Park, Ill.) at time 0, 0.5, 1, 4, 8, and 12 hours after test substance administration, or until βHB returned to baseline. On Day 0 (Week 0) and Day 28 (Week 4), whole blood samples (10 μL) were acquired for analysis of total cholesterol, HDL, and triglycerides for a lipid panel utilizing the commercially available home cholesterol analyzer Cardio Chek™ (Polymer Technology Systems, Inc., Indianapolis, Ind.) at time 0.

[2] = Blood glucose levels after intragastric gavage of ketone supplements; details: rats; for blood glucose levels, overall over the 4 weeks: 5 g/kg gavage daily; for blood glucose levels, week 1: FIG. 4(B)
Procedure: as §1, §2

[3] = Lipid panel (total cholesterol, HDL, triglycerides) at week 0 and week 4; details: rats, after 4-week chronic dosage, 5 g/kg
Procedure: as §1, §2

[4] = Change of body weight over 4 weeks of ketone supplementation; details: rats, 5 g/kg gavage daily, weekly weighing over 4 weeks
Procedure: as §1
Animal weights were obtained weekly (Mittler Toledo SB16001 scales).

[5] = Harvested organ weights at week 4; details: rats, versus control; for liver weight: week 4 harvested organs
Procedure: Animals treated from Example 1 were sacrificed by CO2 between 4-8 hours after gavage-treatment at the end of 4 weeks (28 days at the dose of 5-10 g/kg), which were determined to be peak ketone elevation. Brain, Lungs, Liver, Kidneys, Spleen and Heart were harvest and weighed using AWS-1000 1 kg portable digital scale (AWS, Charleston, S.C.). Organs were then either flash frozen in liquid nitrogen or preserved in paraformaldehyde for future analysis.

[6] = system: hepatocyte cell nuclei; assay: Liver histology (H&E stain) after 28 days of ketone supplementation; details: for fat deposits in liver sections / hepatocyte nucleus number, maximum / hepatocyte nucleus number, minimum / number of RBCs and capillaries in liver sections compared to control / hepatocyte nucleus number, average: rats, 28 days gavage at maximum tolerable dose (5-10 g/kg); for number of RBCs and capillaries in liver sections compared to control: data not shown; for hepatocyte nucleus number, average: minimum 5 images/animal, 5 animals/group; for hepatocyte nucleus number, significance (p, unpaired t-test versus control): significant if p < 0.05
Procedure: Livers from rats administered maximum tolerable dose of ketone supplementation were assessed via histology. The livers from rats treated 4-weeks with ketone supplementation appeared normal in color, size and texture in all groups upon harvesting. The livers were sectioned for histology and stained with Hematoxylin and Eosin (H&E stain), and analyzed by a trained pathologist to assess histopathological changes, including changes in liver cytoarchitecture, presence of steatosis, steatofibrosis, cell nuclei density, capillary density, presence of red blood cells (RBCs) and signs of inflammatory processes (e.g. macrophages).
The representative images are liver sections of Sprague-Dawley that were gavaged daily with water; 1,3-butanediol (BD); Ketone Ester (KE);) for 28 days at the maximum tolerable dose (5-10 g/kg). […] It should be noted that 1,3-butanediol has alcohol-like properties and requires hepatocytes to enzymatically metabolize the di-alcohol through cytosolic alcohol dehydrogenase and the induction of cytochrome p450 enzymes for conversion to βHB. The processes are associated with an increase in liver metabolism and blood flow, possibly resulting in greater number of RBCs and capillaries. There was also a modest, but statistically significant increase in hepatocyte cell nuclei, seen in Table 2, although no indications of liver damage, inflammation, fibrosis or presence of Mallory-Denk bodies were observed.

[7] = Global metabolic profiling of serum and hippocampus (GC/MS and LC/MS/MS) after 28-day treatment; details: rats
Procedure: Rats were treated as described in Example 1, and brain and serum samples were extracted and prepared for analysis using a standard solvent extraction method (Metabolon Inc., Durham, N.C.) at 28 days after initiation of treatment. The extracted samples were split into equal parts for analysis on the GC/MS and LC/MS/MS platforms. Instrument variability was determined by calculating the median relative standard deviation (RSD) for the internal standards that were added to each sample prior to injection into the mass spectrometers.
A total of 388 and 290 compounds were identified in serum and hippocampus samples, respectively. […] The less robust changes in the hippocampal tissue may have been due to the time frame needed to dissect the hippocampal tissue from the brain prior to flash freezing (2-4 minutes). Random Forest (RF) is a supervised classification technique reporting on the consensus of a large number of decision trees. In this study, the serum and hippocampus profiles of animals subjected to different dietary treatments were classified in order to: 1) assess the capacity to distinguish between dietary treatment on the basis of global metabolic profiles and 2) identify biochemicals important to the classification. A classification accuracy of 33% is expected by random chance when comparing three groups. For this study, classification of serum and hippocampus samples was 100% and 83% accurate, respectively, in correctly categorizing samples into their proper groups. […] In serum, the biochemical key to classifying the groups included biomarkers related to ketones, energy metabolites, medium-chain fatty acids, and ketones were key factors for hippocampal group classification.

[8] = 5 g/kg gavage, FIG. 3 (text: week 6; legend: week 4)

## C[C@H](O)CCO [BD, R,S-1,3-butanediol]
[1]
  duration of elevated blood ketones (starting at 30 min): 8 h
[1]; 5 g/kg gavage, FIG. 1(A), week 0
  ketone bodies, peak at 4 hours: 1.0 mM/L
[1]; [8]
  ketone bodies, initial peak at 30 minutes: around 0.8 mM/L
  ketone bodies, second peak at 8 hours: around 0.8 mM/L
[1]; 5 g/kg intragastric gavage daily, overall trend
  time of ketone body peak after treatment: 30 min
[2]
  blood glucose levels, overall over the 4 weeks: did not appear to drastically affect glucose levels
[2]; 5 g/kg gavage
  blood glucose levels, week 1: non-significant reduction
[3]
  Triglyceride levels at week 4: mildly elevated
[4]
  body weight increase versus control: modestly decreased body weight increases
[5]; week 4 harvested organs (brain, lungs, kidneys, spleen, heart)
  non-liver organ weight: no significant change in non-liver organ weight
[5]
  liver weight: not a significant change in liver weight
[6]
  fat deposits in liver sections: the most prevalence of fat deposition
  hepatocyte nucleus number, maximum: 120
  hepatocyte nucleus number, minimum: 70
  number of RBCs and capillaries in liver sections compared to control: trend for greater number of RBCs and capillaries
  hepatocyte nucleus number, average: 93.56
  hepatocyte nucleus number, significance (p, unpaired t-test versus control): 0.585
[6]; listed as BE
  fat deposits in liver sections: evident

## CC(=O)CC(=O)OCCC(C)OC(=O)CC(C)=O (centres unmarked) [KE, R,S-1,3-butanediol acetoacetate diester]
[1]
  duration of elevated blood ketones (starting at 30 min): 8 h
[2]
  blood glucose levels, overall over the 4 weeks: reductions in glucose levels began at 30 minutes after treatment through 4 hours
[2]; 5 g/kg gavage, FIG. 4(A)
  blood glucose levels, week 0: reduction in glucose levels by 1 hour after treatment
[2]; 5 g/kg gavage
  blood glucose levels, week 1: continued the trend
[2]; 5 g/kg gavage, FIG. 5(A)
  blood glucose levels, week 2: enhanced reduction in glucose
[2]; 5 g/kg gavage, FIG. 5(B)
  blood glucose levels, week 3: moderate reductions at 4 hours after treatment
[2]; 5 g/kg gavage, FIG. 6
  blood glucose levels, week 4: reduced glucose levels through 4 hours after treatment
[3]
  Triglyceride levels at week 4: little change
[4]
  body weight increase versus control: further reduced weight gains compared to BD treatment
[5]
  liver weight: statistically significant reduction in liver weight
[6]
  fat deposits in liver sections: evident
  hepatocyte nucleus number, maximum: 141
  hepatocyte nucleus number, minimum: 83
  number of RBCs and capillaries in liver sections compared to control: trend for greater number of RBCs and capillaries
  hepatocyte nucleus number, average: 107.80^a
  hepatocyte nucleus number, significance (p, unpaired t-test versus control): 0.002
[7]; 5 g/kg, 28 days, blood serum
  alpha-ketoglutarate, metabolite ratio relative to a standard diet (SD) alone: 1.98^a
  citrate, metabolite ratio relative to a standard diet (SD) alone: 1.99^a
  fumarate, metabolite ratio relative to a standard diet (SD) alone: 1.92^a
  malate, metabolite ratio relative to a standard diet (SD) alone: 2.03^a
  succinate, metabolite ratio relative to a standard diet (SD) alone: 1.25
[7]; 28-day treatment, hippocampus, FIG. 16
  brain ketone levels, elevation with respect to controls: > 2 fold
[7]; 28-day treatment, serum, FIG. 15
  serum ketone levels, elevation with respect to controls: > 15 fold
